# Results taken from PubChem BioAssay AID2060903 (Molecular Pharmacology Branch, DTP, NCI, 2025).
# System: 377384-186-R-J1-PDC complex spheroid viability
# Assay: Anticancer human tumor 377384-186-R-J1-PDC patient-derived pancreatic carcinoma cell line growth inhibition [RAS]
# Details: for IC50: curve of first compound; for viability, T/C: stronger effect = lower value
# Text: RAS pathway inhibitors in Combinations in Complex Spheroids
# A high-throughput screen of multi-cell type tumor spheroids was designed to identify active combinations of RAS pathway inhibitors and targeted small molecules. Complex spheroids include a stromal component modeled by human endothelial cells (HUVEC) and fibroblasts modeled by human mesenchymal stem cells (MSCs). The concentration ranges selected for each drug and investigational agent were based upon clinically achievable concentrations if the clinical Cmax of the agent was known.
# Compounds. The drugs and investigational agents: abemaciclib (NSC768073), cobimetinib (NSC768068), divarasib (GDC6063, NSC841802), docetaxel (NSC628503), GDC-1971 (RLY-1971, NSC841576), gemcitabine (NSC613327), inavolisib (NSC800729), ipatasertib (NSC767898), KB-0742 (NSC834161), MRTX-1133 (NSC836407), osimertinib (NSC779217), RMC-4630 (NSC839698), RMC-6236 (NSC851965), RMC-6291 (NSC852671), Ro-3306 (NSC812927), sapanisertib (NSC764658), SN-38 (NSC673596), staurosporine (NSC755774), SY5609 (NSC837396), and tovorafenib (DAY101, NSC766906), were obtained from the National Cancer Institute (NCI) Developmental Therapeutics Program Chemical Repository. The FDA-approved anticancer drug set is available from the NCI Developmental Therapeutics Program. […] The stock solutions were prepared in dimethyl sulfoxide (DMSO, Sigma-Aldrich, St. Louis, MO, cat. D2650) at 800-fold the tested concentration and stored at -70 degrees C prior to their use. All drugs and investigational agents were tested over a range starting from a high concentration at or near the clinical Cmax and decreasing in half-log increments. If the clinical Cmax for an agent had not been determined, the highest concentration tested was 10 microM.
# Cell Culture. All cells were maintained in an incubator at 37 degrees C and 5% CO2 with 95% humidity. The PDC lines were cultured according to standard operating procedures established by the NCI PDMR. All PDCs were thawed and cultured in Matrigel-coated flasks prepared with a working solution of 1X Ham's F-12 nutrient mix, without supplementation (Invitrogen, Waltham, MA, cat. 11765054), 100 U/mL penicillin-streptomycin (Invitrogen, cat. 15140122), and 2.5% Matrigel (Corning Inc., Corning, NY, cat. 354248) for the first three passages. The 362531-283-R-J2-PDC and 782815-120-R-J1-PDC lines were cultured in 6C/Colon 1B media, which includes advanced DMEM/F-12 (Thermo Fisher Scientific, cat. 12634028), 10 mM HEPES (Thermo Fisher Scientific, cat. 15630080), 1X GlutaMAX supplement (Thermo Fisher Scientific, cat. 35050061), 0.1 mg/mL primocin (InvivoGen, San Diego, CA, cat. ant-pm-2), 10% defined fetal bovine serum, heat inactivated (HyClone Laboratories Inc., Logan, UT, cat. SH30070.03HI), 50% L-WRN conditioned media (ATCC, cat. CRL-3276), 1.25 mM N-Acetyl-L-cysteine (Sigma-Aldrich, cat. A9165), 10 mM nicotinamide (Sigma-Aldrich, cat. N0636), 1X B-27 supplement (Thermo Fisher Scientific, cat. 17504044), 1X N-2 supplement (Thermo Fisher Scientific, cat. 17502048), 50 ng/mL human EGF (Thermo Fisher Scientific, cat. PHG0311), and 10 microM Y-27632 dihydrochloride (Tocris Bioscience, cat. 1254). The K12877-001-R-J1-PDC line was cultured in 6I media, which includes all 6C/Colon 1B media plus 10 ng/mL human FGF-10 (PeproTech, cat. 100-26), 1 ng/mL human FGF-2 (PeproTech, cat. 100-18B), 1 µM prostaglandin E2 (Tocris Bioscience, cat. 2296), […] hydrocortisone (Sigma-Aldrich, cat. H4001), and […] bovine insulin (Sigma-Aldrich, cat. I6634). The K86415-001-R-J1-PDC line was cultured in 6D media, which includes all 6C/Colon 1B media components minus the L-WRN conditioned media. The 485176-168-R4-J1-PDC was cultured in PANC media, which includes all 6C/Colon 1B media plus 100 ng/mL human FGF-10 (PeproTech, cat. 100-26), 500 nM SB-431542 (Selleckchem, cat. S1067), and 10 nM gastrin (Tocris Bioscience, cat. 3006). […]
# [1] = second compound 0.0316 µM, first compound 0.0316 µM
# [2] = second compound 0.0316 µM, first compound 0.1 µM
# [3] = second compound 0.0316 µM, first compound 0.316 µM
# [4] = second compound 0.0316 µM, first compound 1 µM
# [5] = second compound 0.0316 µM, first compound 3.16 µM
# [6] = second compound 0.0316 µM, first compound 10 µM
# [7] = second compound 0.1 µM, first compound 0.0316 µM
# [8] = second compound 0.1 µM, first compound 0.1 µM
# [9] = second compound 0.1 µM, first compound 0.316 µM
# [10] = second compound 0.1 µM, first compound 1 µM
# [11] = second compound 0.1 µM, first compound 3.16 µM
# [12] = second compound 0.1 µM, first compound 10 µM
# [13] = second compound 0.316 µM, first compound 0.0316 µM
# [14] = second compound 0.316 µM, first compound 0.1 µM
# [15] = second compound 0.316 µM, first compound 0.316 µM
# [16] = second compound 0.316 µM, first compound 1 µM
# [17] = second compound 0.316 µM, first compound 3.16 µM
# [18] = second compound 0.316 µM, first compound 10 µM
# [19] = second compound 1 µM, first compound 0.0316 µM
# [20] = second compound 1 µM, first compound 0.1 µM
# [21] = second compound 1 µM, first compound 0.316 µM
# [22] = second compound 1 µM, first compound 1 µM
# [23] = second compound 1 µM, first compound 3.16 µM
# [24] = second compound 1 µM, first compound 10 µM
# [25] = second compound 3.16 µM, first compound 0.0316 µM
# [26] = second compound 3.16 µM, first compound 0.1 µM
# [27] = second compound 3.16 µM, first compound 0.316 µM
# [28] = second compound 3.16 µM, first compound 1 µM
# [29] = second compound 3.16 µM, first compound 3.16 µM
# [30] = second compound 3.16 µM, first compound 10 µM
# [31] = second compound 10 µM, first compound 0.0316 µM
# [32] = second compound 10 µM, first compound 0.1 µM
# [33] = second compound 10 µM, first compound 0.316 µM
# [34] = second compound 10 µM, first compound 1 µM
# [35] = second compound 10 µM, first compound 3.16 µM
# [36] = second compound 10 µM, first compound 10 µM
# 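Further: spheroids exposed to compounds for seven days before readout.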
structure (smiles),measurement,setting,value
CC(C)NCC(C(=O)N1CCN(c2ncnc3c2C(C)CC3O)CC1)c1ccc(Cl)cc1 (stereo unspecified) + C#Cc1c(F)ccc2cc(O)cc(-c3ncc4c(N5CC6CCC(C5)N6)nc(OCC56CCCN5CC(F)C6)nc4c3F)c12,IC50,second compound 0.0316 µM,< 31.6 nM
same,IC50,second compound 0.1 µM,< 31.6 nM
same,IC50,second compound 0.316 µM,< 31.6 nM
same,IC50,second compound 1 µM,< 31.6 nM
same,IC50,second compound 3.16 µM,< 31.6 nM
same,IC50,second compound 10 µM,< 31.6 nM
same,"viability, T/C",[1],22.6%
same,"viability, T/C",[2],18.8%
same,"viability, T/C",[3],18.2%
same,"viability, T/C",[4],16.9%
same,"viability, T/C",[5],11%
same,"viability, T/C",[6],9.91%
same,"viability, T/C",[7],10.2%
same,"viability, T/C",[8],10.5%
same,"viability, T/C",[9],8.54%
same,"viability, T/C",[10],9.68%
same,"viability, T/C",[11],6.47%
same,"viability, T/C",[12],3.99%
same,"viability, T/C",[13],4.76%
same,"viability, T/C",[14],4.25%
same,"viability, T/C",[15],5.02%
same,"viability, T/C",[16],3.37%
same,"viability, T/C",[17],3.87%
same,"viability, T/C",[18],3.34%
same,"viability, T/C",[19],3.41%
same,"viability, T/C",[20],17.1%
same,"viability, T/C",[21],2.83%
same,"viability, T/C",[22],2.26%
same,"viability, T/C",[23],1.72%
same,"viability, T/C",[24],1.05%
same,"viability, T/C",[25],2.28%
same,"viability, T/C",[26],2.34%
same,"viability, T/C",[27],1.81%
same,"viability, T/C",[28],1.19%
same,"viability, T/C",[29],1.15%
same,"viability, T/C",[30],0.64%
same,"viability, T/C",[31],1.35%
same,"viability, T/C",[32],1.29%
same,"viability, T/C",[33],0.78%
same,"viability, T/C",[34],0.79%
same,"viability, T/C",[35],0.61%
same,"viability, T/C",[36],0.18%
CC(C)n1nc(-c2ccc3oc(N)nc3c2)c2c(N)ncnc21 + C#Cc1c(F)ccc2cc(O)cc(-c3ncc4c(N5CC6CCC(C5)N6)nc(OCC56CCCN5CC(F)C6)nc4c3F)c12,IC50,second compound 0.0316 µM,< 0.316 nM
same,IC50,second compound 0.1 µM,< 0.316 nM
same,IC50,second compound 0.316 µM,< 0.316 nM
same,IC50,second compound 1 µM,< 0.316 nM
same,IC50,second compound 3.16 µM,< 0.316 nM
same,IC50,second compound 10 µM,< 0.316 nM
same,"viability, T/C","second compound 0.0316 µM, first compound 0.000316 µM",23.1%
same,"viability, T/C","second compound 0.0316 µM, first compound 0.001 µM",17.9%
same,"viability, T/C","second compound 0.0316 µM, first compound 0.00316 µM",13.3%
same,"viability, T/C","second compound 0.0316 µM, first compound 0.01 µM",16.1%
same,"viability, T/C",[1],8.86%
same,"viability, T/C",[2],7.03%
same,"viability, T/C","second compound 0.1 µM, first compound 0.000316 µM",9.35%
same,"viability, T/C","second compound 0.1 µM, first compound 0.001 µM",10.2%
same,"viability, T/C","second compound 0.1 µM, first compound 0.00316 µM",8.78%
same,"viability, T/C","second compound 0.1 µM, first compound 0.01 µM",8.07%
same,"viability, T/C",[7],4.39%
same,"viability, T/C",[8],3.64%
same,"viability, T/C","second compound 0.316 µM, first compound 0.000316 µM",4.61%
same,"viability, T/C","second compound 0.316 µM, first compound 0.001 µM",4.79%
same,"viability, T/C","second compound 0.316 µM, first compound 0.00316 µM",3.5%
same,"viability, T/C","second compound 0.316 µM, first compound 0.01 µM",3.8%
same,"viability, T/C",[13],2.4%
same,"viability, T/C",[14],2.03%
same,"viability, T/C","second compound 1 µM, first compound 0.000316 µM",2.88%
same,"viability, T/C","second compound 1 µM, first compound 0.001 µM",2.78%
same,"viability, T/C","second compound 1 µM, first compound 0.00316 µM",2.19%
same,"viability, T/C","second compound 1 µM, first compound 0.01 µM",2.05%
same,"viability, T/C",[19],1.53%
same,"viability, T/C",[20],1.23%
same,"viability, T/C","second compound 3.16 µM, first compound 0.000316 µM",1.79%
same,"viability, T/C","second compound 3.16 µM, first compound 0.001 µM",2.07%
same,"viability, T/C","second compound 3.16 µM, first compound 0.00316 µM",2.15%
same,"viability, T/C","second compound 3.16 µM, first compound 0.01 µM",1.84%
same,"viability, T/C",[25],1.11%
same,"viability, T/C",[26],0.65%
same,"viability, T/C","second compound 10 µM, first compound 0.000316 µM",1.04%
same,"viability, T/C","second compound 10 µM, first compound 0.001 µM",0.81%
same,"viability, T/C","second compound 10 µM, first compound 0.00316 µM",0.8%
same,"viability, T/C","second compound 10 µM, first compound 0.01 µM",0.63%
same,"viability, T/C",[31],0.95%
same,"viability, T/C",[32],0.15%
CC(Nc1ccc2c(c1)OCCn1cc(N3C(=O)OCC3C(F)F)nc1-2)C(N)=O (stereo unspecified) + C#Cc1c(F)ccc2cc(O)cc(-c3ncc4c(N5CC6CCC(C5)N6)nc(OCC56CCCN5CC(F)C6)nc4c3F)c12,IC50,second compound 0.0316 µM,< 31.6 nM
same,IC50,second compound 0.1 µM,< 31.6 nM
same,IC50,second compound 0.316 µM,< 31.6 nM
same,IC50,second compound 1 µM,< 31.6 nM
same,IC50,second compound 3.16 µM,< 31.6 nM
same,IC50,second compound 10 µM,< 31.6 nM
same,"viability, T/C",[1],15.8%
same,"viability, T/C",[2],14.3%
same,"viability, T/C",[3],7.76%
same,"viability, T/C",[4],6.8%
same,"viability, T/C",[5],5.84%
same,"viability, T/C",[6],4.21%
same,"viability, T/C",[7],6.67%
same,"viability, T/C",[8],6.43%
same,"viability, T/C",[9],3.06%
same,"viability, T/C",[10],2.11%
same,"viability, T/C",[11],1.21%
same,"viability, T/C",[12],0.7%
same,"viability, T/C",[13],3.3%
same,"viability, T/C",[14],2.54%
same,"viability, T/C",[15],1.59%
same,"viability, T/C",[16],0.81%
same,"viability, T/C",[17],0.63%
same,"viability, T/C",[18],0.43%
same,"viability, T/C",[19],2.75%
same,"viability, T/C",[20],1.42%
same,"viability, T/C",[21],0.85%
same,"viability, T/C",[22],0.69%
same,"viability, T/C",[23],0.44%
same,"viability, T/C",[24],0.27%
same,"viability, T/C",[25],1.42%
same,"viability, T/C",[26],0.91%
same,"viability, T/C",[27],0.56%
same,"viability, T/C",[28],0.32%
same,"viability, T/C",[29],0.39%
same,"viability, T/C",[30],0.32%
same,"viability, T/C",[31],0.95%
same,"viability, T/C",[32],0.23%
same,"viability, T/C",[33],0.14%
same,"viability, T/C",[34],0.17%
same,"viability, T/C",[35],0.45%
same,"viability, T/C",[36],0.11%
